Laboratory results from paper PMC4850295, “Using a Genetically Encoded Sensor to Identify Inhibitors of Toxoplasma gondii Ca^2+ Signaling” (The Journal of Biological Chemistry, 2016).

tested on: T1, GCaMP5-expressing T. gondii; parameters: species or system GCaMP5-expressing Toxoplasma gondii, extracellular; GCaMP5 fluorescence (cytosolic Ca2+) after 100 uM zaprinast in compound-pretreated extracellular parasites, background-subtracted, relative to zaprinast alone; conditions: 100 uM zaprinast stimulation; 10 min pretreatment; mean of two replicates; 0.23 h
T1 construct: whole extracellular parasites expressing GCaMP5 Ca2+ sensor
In short: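 Read-out is GCaMP5 calcium fluorescence (ex 485/em 525 nm) taken 4 min after 100 μM zaprinast at 37 °C, following 10 min compound pretreatment at 10 μM in duplicate biological replicates. Values are basal-subtracted fold change versus zaprinast-only controls; parasites held extracellular in Ringer's solution.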

| SMILES | fold change in fluorescence relative to zaprinast alone |
| --- | --- |
| CN1CCN(Cc2ccc(NC(=O)Nc3ccc(N(C)c4ccnc(Nc5ccc(CS(C)(=O)=O)cc5)n4)cc3)cc2)CC1 [GW827654A] | 1.248 |
| FC(F)(F)c1ccc(-c2nn3ncccc3c2-c2ccnc(Nc3cccc(C(F)(F)F)c3)n2)cc1 [GW828205X] | 0.4128 |
| FC(F)(F)c1ccc(-c2nn3ncccc3c2-c2ccnc(Nc3ccccc3)n2)cc1 [GW828206X] | 0.303 |
| Clc1ccc(-c2nn3ncccc3c2-c2ccnc(Nc3ccccc3)n2)cc1 [GW829055X] | 1.188 |
| Fc1ccc(Nc2nccc(-c3c(-c4ccc(Cl)cc4)nn4ncccc34)n2)cc1F [GW829058X] | 1.046 |
| Clc1ccc(-c2nn3ncccc3c2-c2ccnc(Nc3ccc4c(c3)OCCO4)n2)cc1 [GW829116X] | 0.6156 |
| FC(F)(F)c1ccc(-c2nn3ncccc3c2-c2ccnc(Nc3ccc(Cl)c(C(F)(F)F)c3)n2)cc1 [GW829350X] | 0.9679 |
| FC(F)(F)c1cc(Nc2nccc(-c3c(-c4ccc(Cl)cc4)nn4ncccc34)n2)ccc1Cl [GW829351X] | 0.8408 |
| COc1cccc(/C=N/Nc2ncnc3c2cnn3-c2cccc(OC)c2)c1 [GW829874X] | 1.214 |
| COc1cccc(-n2ncc3c(N/N=C/c4ccc(C)cc4)ncnc32)c1 [GW829877X] | 1.18 |
| CN1CCN(C(=O)c2ccc(NC(=O)Nc3ccc(N(C)c4ccnc(Nc5ccc(CS(C)(=O)=O)cc5)n4)cc3)cc2)CC1 [GW830263A] | 1.245 |
| CN(c1ccc(NC(=O)NCCN2CCOCC2)cc1)c1ccnc(Nc2ccc(CS(C)(=O)=O)cc2)n1 [GW830365A] | 1.217 |
| CN(c1ccc(NC(=O)Nc2cccc(Cl)c2)cc1)c1ccnc(N)n1 [GW830707A] | 0.7635 |
| CN(c1ccc(NC(=O)N2CCN(CCCN3CCOCC3)CC2)cc1)c1ccnc(Nc2ccc(CS(C)(=O)=O)cc2)n1 [GW830899A] | 1.092 |
| CN(C)CCNC(=O)Nc1ccc(N(C)c2ccnc(Nc3ccc(CS(C)(=O)=O)cc3)n2)cc1 [GW830900A] | 1.233 |
| NS(=O)(=O)c1ccc(Nc2cc(-c3cccc(O)c3)n[nH]2)cc1 [GW831090X] | 1.167 |
| NS(=O)(=O)c1ccc(Nc2cc(-c3ccc(O)c(F)c3)n[nH]2)cc1 [GW831091X] | 1.195 |
| Cc1ccc2c(-c3ccnc(Nc4ccc5c(c4)OCCO5)n3)c(-c3ccc(C(F)(F)F)cc3)nn2n1 [GW832467X] | 0.6662 |
| CN(C)CCOc1ccc(-c2cc(-c3cn[nH]c3-c3ccccn3)ccn2)cc1 [GW835314X] | 0.7262 |
| COc1cc(Nc2ncc3c(C)nc(-c4cccc(C(F)(F)F)c4)n3n2)cc(OC)c1OC [GW837331X] | 0.3788 |
| Cc1ccc(-n2nc(C(C)(C)C)cc2NC(=O)Nc2ccc(OCCN3CCOCC3)c3ccccc23)cc1 [GW839464X] | 1.059 |
| COc1cc2ncn(-c3cc(OCc4ccccc4C(F)(F)F)c(C(N)=O)s3)c2cc1OC [GW843682X] | 1.213 |
| NC(=O)c1sc(-n2cnc3ccc(C(F)(F)F)cc32)cc1OCc1ccccc1Br [GW853606X] | 1.175 |

| SMILES | fold change in fluorescence relative to zaprinast alone |
| --- | --- |
| CC(C)(C)c1ccc2nccc(Nc3cccc(O)c3)c2c1 [GW856795X] | 0.1562 |
| Nc1ncc(-c2cccc(S(N)(=O)=O)c2)c2scc(-c3ccc(F)c(Cl)c3)c12 [GW856804X] | 0.8933 |
| Cc1ccc(O)cc1Nc1ccnc2ccc(C(C)(C)C)cc12 [GW856805X] | 0.3414 |
| COc1cc(Nc2ncc3c(C)nc(-c4cccc(Oc5ccccc5)c4)n3n2)cc(OC)c1OC [GW861893X] | 0.7386 |
| COc1cc(Nc2ncc3c(C)nc(-c4cc5ccccc5[nH]4)n3n2)cc(OC)c1OC [GW869516X] | 0.08874 |
| Cc1cccc(-c2nc(Nc3ccncc3)c3sccc3n2)n1 [GW869641X] | 1.179 |
| O=C(O[C@H]1CN[C@H](C#Cc2cc3ncnc(Nc4ccc(OCc5cccc(F)c5)c(Cl)c4)c3s2)C1)N1CCOCC1 [GW869810X] | 1.08 |
| Clc1cccc(-c2nc(Nc3ccncc3)c3ccccc3n2)c1 [GW873004X] | 1.301 |
| Cc1nc(-c2ccccc2)n2nc(NCCCN3CCOCC3)ncc12 [GW874091X] | 1.267 |
| Cc1cccc(-c2nc(Nc3cccc(C(N)=O)c3)c3ccccc3n2)n1 [GW876019X] | 1.051 |
| Fc1ccc(-c2ncn(CCCN3CCOCC3)c2-c2ccncc2)cc1 [SB-210313] | 1.039 |
| Fc1ccc(-c2ncn(CCCNCc3ccccc3)c2-c2ccncc2)cc1 [SB-210486] | 0.7327 |
| Fc1ccc(-c2ncn(CCCN3CCOCC3)c2-c2ccccn2)cc1 [SB-211742] | 1.072 |
| Fc1ccc(-c2ncn(CCCN3CCOCC3)c2-c2cccnc2)cc1 [SB-211743] | 1.228 |
| Nc1nccc(-c2c(-c3ccc(F)cc3)ncn2CCCN2CCOCC2)n1 [SB-216385] | 1.045 |
| CSc1nccc(-c2c(-c3ccc(F)cc3)ncn2CCCN2CCOCC2)n1 [SB-217146-A] | 0.6021 |
| Fc1ccc(-c2nc[nH]c2-c2ccncc2)cc1 [SB-217360] | 0.1031 |
| FC(F)(F)c1ccc(-c2ncn(CCCN3CCOCC3)c2-c2ccncc2)cc1 [SB-217780] | 0.91 |
| CCOC(=O)N1CCC(n2cnc(-c3ccc(F)cc3)c2-c2ccnc(N)n2)CC1 [SB-219952] | 0.8316 |
| Nc1nccc(-c2c(-c3ccc(F)cc3)ncn2C2CCN(Cc3ccccc3)CC2)n1 [SB-219980] | 0.5084 |
| Nc1nccc(-c2c(-c3ccc(F)cc3)ncn2C2CCNCC2)n1 [SB-220025-R] | 1.112 |
| CC1(C)CC(n2cnc(-c3ccc(F)cc3)c2-c2ccnc(N)n2)CC(C)(C)N1 [SB-221466] | 1.33 |
| CNc1nccc(-c2c(-c3ccc(F)cc3)ncn2CCCN2CCOCC2)n1 [SB-222516] | 0.95 |

| SMILES | fold change in fluorescence relative to zaprinast alone |
| --- | --- |
| Cc1cc(-c2c(-c3ccc(F)cc3)ncn2CCCN2CCOCC2)nc(N)n1 [SB-222517] | 1.044 |
| CNc1nccc(-c2c(-c3ccc(F)cc3)ncn2C2CCN(C)CC2)n1 [SB-222903] | 0.211 |
| CC(C)N1CCC(n2cnc(-c3ccc(F)cc3)c2-c2ccnc(N)n2)CC1 [SB-223132] | 0.4026 |
| Nc1nccc(-c2c(-c3ccc(F)cc3)ncn2C2CCC(O)CC2)n1 (centres unmarked) [SB-223133] | 0.9972 |
| CCNc1nccc(-c2c(-c3ccc(F)cc3)ncn2C2CCN(C)CC2)n1 [SB-226605] | 0.6067 |
| CN1CCC(n2cnc(-c3ccc(F)cc3)c2-c2ccnc(NCCO)n2)CC1 [SB-226879] | 1.236 |
| CN1CCC(n2cnc(-c3ccc(F)cc3)c2-c2ccnc(NC3CCNCC3)n2)CC1 [SB-229482] | 0.6668 |
| Nc1nccc(-c2c(-c3ccc(F)cc3)ncn2C2CCN(CC(F)(F)F)CC2)n1 [SB-236560] | 0.7968 |
| CN1CCC(n2cnc(-c3ccc(F)cc3)c2-c2ccnc(Nc3ccccc3)n2)CC1 [SB-236687] | 1.382 |
| Fc1ccc(-c2ncn(C3CCNCC3)c2-c2ccnc(Nc3ccccc3)n2)cc1 [SB-238039-R] | 0.4937 |
| NC(=O)c1ccc(Oc2nccc(-c3c(-c4ccc(F)cc4)ncn3C3CCNCC3)n2)cc1 [SB-242718] | 1.27 |
| CCc1ccc(Oc2nccc(-c3c(-c4ccc(F)cc4)ncn3C3CCNCC3)n2)cc1 [SB-242719] | 1.455 |
| Fc1ccc(-c2ncn(C3CCNCC3)c2-c2ccnc(Oc3ccc(-c4ccccc4)cc3)n2)cc1 [SB-245391] | 1.215 |
| CCOc1nccc(-c2c(-c3ccc(F)cc3)ncn2C2CCNCC2)n1 [SB-249175] | 0.6135 |
| Fc1ccc(-c2ncn(C3CCNCC3)c2-c2ccnc(Oc3ccc4c(c3)OCO4)n2)cc1 [SB-250715] | 1.074 |
| Fc1ccc(-c2ncn(C3CCNCC3)c2-c2ccnc(Oc3ccc(F)c(F)c3)n2)cc1 [SB-253228] | 1.173 |
| NC(=O)Cc1ccccc1Oc1nccc(-c2c(-c3ccc(F)cc3)ncn2C2CCNCC2)n1 [SB-264865] | 1.313 |
| COc1nccc(-c2c(-c3ccc(F)cc3)ncn2CCCN2CCOCC2)n1 [SB-282852] | 0.8251 |
| CN1C(=O)C(Nc2ccccc2)=C(c2ccccc2)C1=O [SB-300079] | 0.899 |
| O=C1NC(=O)C(c2ccc(Cl)cc2)=C1Nc1cccc(Cl)c1 [SB-317651] | 0.9895 |
| CSc1ccc(NC2=C(c3ccc(Cl)cc3)C(=O)NC2=O)cc1 [SB-317658] | 0.971 |
| CN(C1=C(c2ccccc2)C(=O)NC1=O)c1ccccc1 [SB-334860] | 0.8099 |
